Reference: paper PMC8231504, “A Biophysical Insight of Camptothecin Biodistribution: Towards a Molecular Understanding of Its Pharmacokinetic Issues” (Pharmaceutics, 2021)
Where two headings read alike, the source gives them in different places.

Columns and labels:
[1] = Distribution coefficient in membrane/aqueous system, cancer cell membrane model; format: physicochemical; details: for LogD: cancer cells membranes, 37 °C
Description: (§1) Single-lipid liposomal membrane models composed of DMPC, or lipid mixture liposomal membrane models mimetic of breast cancer cell membrane—DOPC (25%), CHOL (15%), EPC (31.8%), DOPS (17%), DOPE (8%), cardiolipin (2.5%) and SM (0.7%)—mimetic of cell membrane—[…], DOPE (20%), DOPS (20%), CHOL (10%), and SM (10%)—and, blood–brain barrier (BBB) membrane constituted by the BPL—phosphocholine (PC) (12.6%), phosphatidyl ethanolamine (PE) (33.1%), PI (4.1%), phosphatidyl serine (PS) (18.5%), and PA (0.8%) were prepared by the classical thin film hydration method. Briefly, lipids were co-dissolved in chloroform:methanol (8:2, v/v) and the solvents were evaporated under a stream of nitrogen in a rotary evaporator (Buchi R-200; Sigma-Aldrich Corp., Buchs, Switzerland). The resultant dried lipid film was hydrated with buffer at temperature of 40 ± 0.1 °C and lipid colloidal dispersions were formed by alternating vortex and thermostatic bath (40 ± 0.1 °C). […]
(§2) The distribution coefficient (LogD) of CPT between membrane and aqueous buffered solution (pH 5.8 for breast cancer cell membrane model and pH 7.4 for cell membrane model and BBB membrane model) was determined by fluorescence spectroscopy and derivative UV-Vis spectroscopy. […] The samples contained a fixed concentration of CPT (2 × 10^−5M) and increasing concentrations of lipid suspension (0 to 1 × 10^−3 M for absorbance or 3 × 10^−3 M for fluorescence). […] The fluorescence spectra were also measured on a Perkin-Elmer LS-50B spectrofluorimeter. The emission spectra were obtained in 380–480 nm range with λexcitation = 250 nm and the excitation spectra were recorded in 220–400 nm range with λemission = 430 nm. […] The second and third derivative spectra of the absorbance UV-Vis spectra were determined to improve the resolution of spectral bands and to eliminate the spectral interferences due to light scattered by the lipid suspensions. […]
(§3) Because CPT is a fluorescent compound with spectral variations due to its distribution between the lipid/aqueous phases (e.g., λ shifts), logD of CPT can also be calculated using fluorescence spectroscopy. […]

[2] = Distribution coefficient in membrane/aqueous system, normal cell membrane model; format: physicochemical; details: for LogD: normal cells membranes (DOPC, DOPE, DOPS, CHOL, SM)
Description: as §1, §2, §3

[3] = Distribution coefficient in membrane/aqueous system, BBB membrane model; format: physicochemical; details: BBB endothelial membrane, pH 7.4, derivative spectroscopy
Description: Single-lipid liposomal membrane models composed of DMPC, or lipid mixture liposomal membrane models mimetic of breast cancer cell membrane—DOPC (25%), CHOL (15%), EPC (31.8%), DOPS (17%), DOPE (8%), cardiolipin (2.5%) and SM (0.7%)—mimetic of cell membrane—DOPC (45%), DOPE (20%), DOPS (20%), CHOL (10%), and SM (10%)—and, blood–brain barrier (BBB) membrane constituted by the BPL—phosphocholine (PC) (12.6%), phosphatidyl ethanolamine (PE) (33.1%), PI (4.1%), phosphatidyl serine (PS) (18.5%), and PA (0.8%) were prepared by the classical thin film hydration method. […]
The distribution coefficient (LogD) of CPT between membrane and aqueous buffered solution (pH 5.8 for breast cancer cell membrane model and pH 7.4 for cell membrane model and BBB membrane model) was determined by fluorescence spectroscopy and derivative UV-Vis spectroscopy. […] The samples contained a fixed concentration of CPT (2 × 10^−5M) and increasing concentrations of lipid suspension (0 to 1 × 10^−3 M for absorbance or 3 × 10^−3 M for fluorescence). […] The fluorescence spectra were also measured on a Perkin-Elmer LS-50B spectrofluorimeter. The emission spectra were obtained in 380–480 nm range with λexcitation = 250 nm and the excitation spectra were recorded in 220–400 nm range with λemission = 430 nm. […]

[4] = biological target: HSA (Homo sapiens, UniProt P02768); experiment: Plasma protein binding by steady-state fluorescence quenching
Protocol: The fluorescence excitation and emission spectra of increasing CPT concentrations (0 to 3 × 10^−4 M) with a constant HSA concentration (2.0 × 10^−6 M) were acquired at 37.0 ± 0.1 °C (Perkin-Elmer LS-50B spectrofluorimeter, Waltham, USA), with excitation at 280 nm and emission at 342 nm, each with 5 nm slits. The following binding isotherm equation can be used to explain the quenching of HSA fluorescence caused by increasing CPT concentrations:(6) % Quenching=ymáx·n/1+Kdiss/[CPT] where ymax is the maximum fluorescence quenching measured, n is the number of binding sites of HSA to CPT, and Kdiss is the dissociation constant (i.e., the inverse of binding constant, Kbind). In addition, the following equation expresses the relationship between the Kdiss value and the Gibbs free energy ( Δ G) of complex binding:(7) ΔGbind=[…] where R is the ideal gas constant and T is the temperature in Kelvin (K).

[5] = Modelling biodistribution using in vitro parameters; design: species or system human; details: for predicted off-target distribution / bioaccumulation: Equation (9)
Protocol: (§4) The logD value obtained can be used with in silico descriptors to predict many biodistribution parameters using mathematical methods. As a result, the value of logD was used to predict CPT bioaccumulation (as expressed by the bioaccumulation constant, Kbioaccumulation), which is associated to tissue blood flow (Q) and its volume (V):(9) Kbioaccumulation=Q/V·logD
(§5) To determine if the drug is stored in adipose tissue, the adipose store index (ASI) of CPT was calculated using the following equation [28]:(10) ASI=1.81·logD−logD+0.40
(§6) Furthermore, the obtained distribution coefficient in the BPL model system—logD(BBB)—can be compared to logBB, according to Waterbeem and Kansy. The logarithm of the ratio of drug concentrations in brain and blood is known as logBB, and it represents the drug’s relative affinity variations between plasma proteins and brain tissue:(11) logBB=0.388·logDBBB−0.00618·Vm+1.359 where Vm is the membrane model system’s molar volume, determined from the individual lipid volumes.
(§7) The steady-state volume distribution (VDSS) is one of the most useful PK criteria for describing a drug’s biodistribution. The effect of the PPB, permeability, partitioning, and active transport on the drug’s physiological distribution is translated by this predictor. Based on human clinical PK evidence of a wide set of drugs (670 drugs), the first physiological statistical model of VDSS for predicting the biodistribution of neutral and basic drugs was proposed:(12) VDSS=VP·(1+RE/L)+fu·VP(VE/VP−RE/L)+VR·fu/fut where VP and VE are the plasma and extracellular fluid volumes with corresponding value in human of […]; RE/I represents the ratio of extravascular and intravascular proteins, and is strictly referred to the distribution of albumin, assuming an approximate value of 1.4; VR is defined as the physical volume into which the drug distributes minus the extracellular space (0.380 L∙Kg^−1); fu and fut are, respectively, the unbound drug fraction in plasma and the unbound fraction in tissues.
(§8) The fu values can be obtained by the following equation [33]:(13) fu=1−PPB/100 where PPB can be obtained from the in vitro values of Kbind:(14) PPB=100/1+1/CP·Kbind where CP is the physiological plasma protein concentration (750 μM).
(§9) Lastly, fut can be obtained by the following equation [32]:(15) logfut=−0.0289−0.1739·logD−0.8324·fi(7.4)+1.0400·logfu where fi(7.4) is the fraction of ionized drug at pH 7.4 which has been calculated considering the pH hydrolysis and conversion of CPT from lactone neutral form to the anionic form carboxylate reported.

[6] = tested on: HSA; experiment: as above; design: species or system human; details: human, plasma proteins (calculated from in vitro Kbind to HSA); from Kbind to HSA, Equation (14); read-out: PPB (converted)
Protocol: as §4, §5, §6, §7, §8, §9

[7] = Literature in vivo steady-state volume of distribution; details: human, converted from 190 ± 46 L·m^−2 with body surface 1.9 m^2 and body weight 70 kg, ref [71], read-out: in vivo VDSS
[8] = design: method as in PMID 30869853, PMID 21430952; details: DMPC or DMPG, pH 7.4, fluorescence anisotropy; ref [16],[45],[46]; cited from earlier work
[9] = design: method as in doi:10.1021/jp035260s; details: DOPC, pH 7.4, fluorescence anisotropy; ref [47]; cited from earlier work
[10] = design: method as in doi:10.1021/jp035260s; details: DOPG, pH 7.4, fluorescence anisotropy; ref [47]; cited from earlier work
[11] = tested on: BSA; design: method as in Li et al. [17]; details: ref Li et al. [17]; cited from earlier work
[12] = design: method as in PMID 22520977; details: after 2 h in contact with human blood; ref [3]; cited from earlier work
[13] = design: method as in PMID 30654016; details: at lower concentrations (5 µM); ref [38]; cited from earlier work
[14] = tested on: C26 colon carcinomas; design: method as in PMID 18384903; details: 2.5 mg∙Kg^−1 dose of CPT; ref [79]; cited from earlier work
[15] = fluorescence spectroscopy, ref [18],[47],[48] (table), [18],[49],[50]; cited from earlier work

Sequence of HSA (Homo sapiens, UniProt P02768) (P02768 25-609): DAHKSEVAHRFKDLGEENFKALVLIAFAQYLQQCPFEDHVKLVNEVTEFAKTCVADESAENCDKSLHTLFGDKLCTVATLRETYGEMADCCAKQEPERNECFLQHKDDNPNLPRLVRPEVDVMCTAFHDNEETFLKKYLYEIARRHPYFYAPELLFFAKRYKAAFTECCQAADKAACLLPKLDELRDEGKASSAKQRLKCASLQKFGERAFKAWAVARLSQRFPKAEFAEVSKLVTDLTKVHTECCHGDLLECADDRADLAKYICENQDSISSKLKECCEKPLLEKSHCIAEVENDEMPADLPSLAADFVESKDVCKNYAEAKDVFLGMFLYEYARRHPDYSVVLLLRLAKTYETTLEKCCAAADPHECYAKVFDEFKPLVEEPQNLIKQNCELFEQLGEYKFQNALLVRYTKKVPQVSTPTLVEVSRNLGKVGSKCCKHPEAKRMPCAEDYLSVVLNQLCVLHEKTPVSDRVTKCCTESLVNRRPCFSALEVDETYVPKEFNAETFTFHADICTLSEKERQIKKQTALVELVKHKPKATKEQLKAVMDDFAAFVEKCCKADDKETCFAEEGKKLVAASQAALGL

In the case of `CC[C@@]1(O)C(=O)OCc2c1cc1n(c2=O)Cc2cc3ccccc3nc2-1` [CPT, Camptothecin], the LogD ([1]; pH 5.8, derivative UV-Vis spectroscopy) is reported as 3.14 ± 0.13 ^ns, the LogD ([1]; pH 5.8, fluorescence spectroscopy) is reported as 3.01 ± 0.31 ^ns and the “logD in the cancer cell membrane model” value ([1]; mean of the two methods, pH 5.8) is reported as 3.08 ± 0.22. The “average logD” value ([2]; average over normal and cancer cell membrane models and both methods) was 2.89 ± 0.23, the LogD ([2]; pH 7.4, derivative UV-Vis spectroscopy) was 2.78 ± 0.28 ^ns and the LogD ([2]; pH 7.4, fluorescence spectroscopy) was 2.63 ± 0.15 ^ns. For the same compound, the LogD [3] was 3.64 ± 0.15, the Kd ([4]; HSA 2.0 × 10^−6 M, 37 °C, read-out: dissociation constant Kdiss) was 65.7 µM and the “binding constant Kbind” value ([4]; HSA, 37 °C) was 1.52 ± 0.26 × 10^4 M^−1. For the same compound, the “number of binding sites n” value ([4]; HSA, 37 °C) was 1, the “Gibbs free energy ΔGbind” value ([4]; HSA, Equation (7)) was -5.93 ± 0.10 kcal/mol and the “adipose storage index (ASI)” value ([5]; Equation (10), from logD) was 2.53 ± 0.12. The “LogBB (brain accumulation index)” value ([5]; Equation (11), from logD in BBB endothelial membrane) was 2.76 ± 0.06, the “predicted off-target distribution / bioaccumulation” value ([5]; adrenal glands, from logD in normal cell membrane model) was 61.44% and the “free drug available for distribution to the tissues” value ([5]; from PPB) was 8.05%. The “predicted off-target distribution / bioaccumulation” value ([5]; heart) was 3.07%, the fraction unbound ([5]; human, plasma (calculated from PPB), Equation (13), read-out: unbound fraction in plasma fu) was 0.081 and the fraction unbound ([5]; human, tissues (predicted), Equation (15), read-out: unbound fraction in tissues fut) was 0.0054. The Vd ([5]; human, Equation (12), from in vitro logD and PPB, read-out: VDSS (steady-state volume of distribution)) was 5.75 ± 0.932 L/kg, the “predicted off-target distribution / bioaccumulation” value ([5]; kidneys) was 3.07% and the “predicted off-target distribution / bioaccumulation” value ([5]; thyroid) was 30.72%. For the same compound, the fraction unbound [6] was 0.0805, the Vd [7] was 5.16 ± 1.25 L/kg and the LogD [8] was 2.00 ± 0.16. For the same compound, the LogD [9] was 1.55 ± 0.05, the LogD [10] was 1.97 ± 0.05 and the “binding constant Kbind with BSA” value [11] was 37200 M⁻¹. For the same compound, the “CPT lactone form remaining” value [12] was 5%, the Papp [13] was 3e-05 cm/s and the “AUC (blood plasma)” value [14] was 1.1 µg·h/mL. The “LogD / logP in octanol:water” value [15] was 1.73 ± 0.08.
